Data from PMC11071649, “Synthesis and Selective Anticancer Activity Evaluation of 2-phenylacrylonitrile Derivatives as Tubulin Inhibitors” (Current Medicinal Chemistry, 2024).
Read-outs that look alike come from different tables or passages of the source.

What was measured:
Format in all cases: cell-based, human
A549 lung cancer cell = test: MTT anti-proliferative assay, A549; details: for IC50: MTT, 48 h
Protocol: (§1) The anti-proliferation activities of the synthesized analogs were assessed by an in vitro MTT assay conducted on thirteen human cell lines. Their cytotoxic activities were evaluated by measuring the inhibition of net cell growth. […]
(§2) 1.6. Cell lines and cell culture
(§3) MTT was purchased from Sigma-Aldrich Co. (St. Louis, MO, USA). The PI and Annexin V-FITC apoptosis detection kit were purchased from Invitrogen (Eugene, OR, USA). All human cell lines were used in this study. […]
(§4) cell, MCF-7 breast cancer cell, MCF-10A normal breast cell, Raji B lymphoblastoid cell and diffuse large B-cell lymphoma SU-DHL-10 cell were initially purchased from American Type Culture Collection (ATCC, Manassas, Virginia). media, DMEM, and FBS were provided from Gibco Company.
(§5) 1.7. Cell growth inhibition assay (MTT assay)
(§6) The experiment was carried out according to the method of reference. Briefly, cells were plated in 96-well plates at a den- […]
(§7) the anti-proliferative activities were determined by MTT assay. […]
(§8) (Becton-Dickinson, Franklin Lakes, NJ). […]

AGS gastric cancer cell = test: MTT anti-proliferative assay, AGS; details: for IC50: MTT, 48 h
Protocol: as §1, §2, §3, §4, §5, §6, §7, §8

[1] = test system: BEL-7402 liver cancer cell; test: MTT anti-proliferative assay, BEL-7402; details: for IC50: MTT, 48 h
Protocol: as §1, §2, §3, §4, §5, §6, §7, §8

[2] = test system: HCT116 colectal cancer cell; test: MTT anti-proliferative assay, HCT116; details: for IC50: MTT, 48 h
Protocol: as §1, §2, §3, §4, §5, §6, §7, §8

[3] = test system: HeLa cervical cancer cell; test: MTT anti-proliferative assay, HeLa; details: MTT, 48 h
Protocol: as §1, §2, §3, §4, §5, §6, §7, §8

HepG2 hepatoma cell = test: MTT anti-proliferative assay, HepG2; details: for IC50: MTT, 48 h, read-out: IC50 HepG-2
Protocol: as §1, §2, §3, §4, §5, §6, §7, §8

L-02 normal liver cell = test: MTT assay, L-02 normal cells; details: 48 h
Protocol: as §1, §2, §3, §4, §5, §6, §7, §8

[4] = test system: MGC-803 late stage differentiation gastric cancer cell; test: MTT anti-proliferative assay, MGC-803; details: for IC50: MTT, 48 h
Protocol: as §1, §2, §3, §4, §5, §6, §7, §8

MCF-7 breast cancer cell = test: MTT anti-proliferative assay, MCF-7; details: MTT, 48 h
Protocol: as §1, §2, §3, §4, §5, §6, §7, §8

[5] = test system: MCF-10A normal breast cell; test: MTT assay, MCF-10A normal cells; details: 48 h
Protocol: as §1, §2, §3, §4, §5, §6, §7, §8

[6] = test system: Raji B lymphoblastoid cell; test: MTT anti-proliferative assay, Raji; details: for IC50: MTT, 48 h, read-out: IC50 Raji
Protocol: as §1, §2, §3, §4, §5, §6, §7, §8

[7] = test system: SGC-7901 early differentiation gastric cancer cell; test: MTT anti-proliferative assay, SGC-7901; details: for IC50: MTT, 48 h
Protocol: as §1, §2, §3, §4, §5, §6, §7, §8

[8] = test system: diffuse large B-cell lymphoma SU-DHL-10 cell; test: MTT anti-proliferative assay, SU-DHL-10; details: for IC50: MTT, 48 h, read-out: IC50 SU-DHL-10
Protocol: as §1, §2, §3, §4, §5, §6, §7, §8

Structure (SMILES)	IC50 (A549 lung cancer cell) [µM]	IC50 (AGS gastric cancer cell) [µM]	IC50 [1] [µM]	IC50 ([2]; read-out: IC50 HCT-116) [µM]	IC50 [3] [µM]	IC50 (HepG2 hepatoma cell) [µM]	IC50 (L-02 normal liver cell) [µM]	IC50 [4] [µM]	IC50 (MCF-7 breast cancer cell) [µM]	IC50 [5] [µM]	IC50 [6] [µM]	IC50 [7] [µM]	IC50 [8] [µM]	other results
N#C/C(=C\c1ccccc1)c1ccccc1OC(F)(F)F [Compound 1c2a]	> 100	> 100	> 100	> 100	> 100	> 100	> 100	> 100	> 100	> 100	> 100	> 100	> 100	–
N#C/C(=C\c1ccccc1)c1ccc(OC(F)(F)F)cc1 [Compound 1a2a]	> 100	> 100	> 100	> 100	> 100	> 100	> 100	> 100	> 100	> 100	> 100	> 100	> 100	–
N#C/C(=C\c1ccc(N2CCOCC2)cc1)c1ccc(OC(F)(F)F)cc1 [Compound 1a2s]	> 100	> 100	> 100	> 100	> 100	> 100	> 100	> 100	> 100	> 100	> 100	> 100	> 100	–
COc1cccc(/C=C(\C#N)c2ccc(OC(F)(F)F)cc2)c1 [Compound 1a2k]	> 100	> 100	> 100	> 100	> 100	> 100	> 100	> 100	> 100	> 100	> 100	> 100	> 100	–
CN(C)c1ccc(/C=C(\C#N)c2cccc(OC(F)(F)F)c2)cc1 [Compound 1b2h]	> 100	> 100	1 ± 0.8	0.3 ± 0.2	> 100	42.3 ± 18.2	52 ± 8.4	3.7 ± 1.3	> 100	> 100	20.1 ± 2.3	7.1 ± 2.4	> 100	SI (selectivity index), IC50 (L-02)/IC50 (BEL-7402) [1]: > 50.5; SI (selectivity index), IC50 (L-02)/IC50 (HCT-116) [2]: > 153.1; SI (selectivity index), IC50 (L-02)/IC50 (HepG-2) (HepG2 hepatoma cell): > 1.3; SI (selectivity index), IC50 (L-02)/IC50 (MGC-803) [4]: > 13.9; SI (selectivity index), IC50 (L-02)/IC50 (Raji) [6]: > 2.5; SI (selectivity index), IC50 (L-02)/IC50 (SGC-7901) [7]: > 7.2
Cc1cccc(/C=C(\C#N)c2ccc(C(F)(F)F)cc2)c1 [Compound 1f2o]	> 100	41.2 ± 1.1	> 100	> 100	> 100	> 100	> 100	> 100	> 100	> 100	> 100	> 100	> 100	–
N#C/C(=C\c1ccccc1C(F)(F)F)c1ccc(C(F)(F)F)cc1 [Compound 1f2m]	> 100	> 100	> 100	> 100	> 100	> 100	> 100	> 100	> 100	> 100	> 100	> 100	> 100	SI (selectivity index), IC50 (L-02)/IC50 (A549) (A549 lung cancer cell): > 2.6; SI (selectivity index), IC50 (L-02)/IC50 (AGS) (AGS gastric cancer cell): > 2.1; SI (selectivity index), IC50 (L-02)/IC50 (HCT-116) [2]: > 1.7
N#C/C(=C\c1ccc(Br)cc1)c1ccc(C(F)(F)F)cc1 [Compound 1f2f]	> 100	> 100	> 100	> 100	> 100	> 100	> 100	> 100	> 100	> 100	> 100	> 100	> 100	–
N#C/C(=C\c1ccc(Cl)cc1)c1ccccc1OC(F)(F)F [Compound 1c2b]	> 100	31.4 ± 8.3	> 100	> 100	> 100	70.5 ± 25.4	> 100	29 ± 8.3	> 100	> 100	> 100	> 100	> 100	SI (selectivity index), IC50 (L-02)/IC50 (AGS) (AGS gastric cancer cell): > 3.1; SI (selectivity index), IC50 (L-02)/IC50 (HepG-2) (HepG2 hepatoma cell): > 1.4; SI (selectivity index), IC50 (L-02)/IC50 (MGC-803) [4]: > 3.4
COc1ccc(/C=C(\C#N)c2ccc(OC(F)(F)F)cc2)cc1 [Compound 1a2j]	> 100	21.1 ± 5.2	> 100	42.5 ± 12.3	> 100	72.6 ± 25.3	> 100	> 100	> 100	94.1 ± 3.5	> 100	> 100	> 100	SI (selectivity index), IC50 (L-02)/IC50 (AGS) (AGS gastric cancer cell): > 4.7; SI (selectivity index), IC50 (L-02)/IC50 (HCT-116) [2]: > 2.3; SI (selectivity index), IC50 (L-02)/IC50 (HepG-2) (HepG2 hepatoma cell): > 1.3
N#C/C(=C\c1cn(-c2ccccc2)nn1)c1ccc(OC(F)(F)F)cc1 [Compound 7a]	–	–	–	–	–	–	–	–	–	–	–	–	–	IC50 (A549 lung cancer cell; Homo sapiens, A549): > 100 µM; IC50 (AGS gastric cancer cell; Homo sapiens): > 100 µM; IC50 ([1]; Homo sapiens, Bel-7402): > 100 µM; IC50 ([2]; Homo sapiens, HCT-116): > 100 µM; IC50 ([3]; Homo sapiens, HeLa): > 100 µM; IC50 (HepG2 hepatoma cell; Homo sapiens, HepG2): > 100 µM; IC50 (L-02 normal liver cell; Homo sapiens): > 100 µM; IC50 ([4]; Homo sapiens, MGC-803): > 100 µM; IC50 (MCF-7 breast cancer cell; Homo sapiens, MCF7): > 100 µM; IC50 ([5]; Homo sapiens, MCF-10A): > 100 µM; IC50 ([6]; Homo sapiens, Raji): > 100 µM; IC50 ([7]; Homo sapiens, SGC-7901): > 100 µM; IC50 ([8]; Homo sapiens, SU-DHL10): > 100 µM
N#C/C(=C\c1ccccn1)c1cccc(OC(F)(F)F)c1 [Compound 1b3a]	32.6 ± 1.1	15.4 ± 0.5	> 100	19.3 ± 0.1	38.8 ± 3.5	21.5 ± 7.6	35.9 ± 1.6	20.7 ± 1.5	25.5 ± 0.4	22.7 ± 3.5	56.6 ± 5.8	20.9 ± 5.1	59.7 ± 0.8	SI (selectivity index), IC50 (L-02)/IC50 (BEL-7402) [1]: > 5.2
COc1cccc(/C=C(\C#N)c2ccc(C(F)(F)F)cc2)c1 [Compound 1f2t]	> 100	77.5 ± 3.9	> 100	33.2 ± 0.2	> 100	> 100	> 100	> 100	> 100	> 100	> 100	> 100	> 100	SI (selectivity index), IC50 (L-02)/IC50 (AGS) (AGS gastric cancer cell): > 1.2; SI (selectivity index), IC50 (L-02)/IC50 (HCT-116) [2]: > 3.0
N#C/C(=C\c1cccc(C(F)(F)F)c1)c1ccc(C(F)(F)F)cc1 [Compound 1f2l]	> 100	> 100	> 100	> 100	> 100	> 100	> 100	> 100	> 100	> 100	72.1 ± 7.2	> 100	50.1 ± 20.9	SI (selectivity index), IC50 (L-02)/IC50 (Raji) [6]: > 1.3; SI (selectivity index), IC50 (L-02)/IC50 (SU-DHL-10) [8]: > 1.9
N#C/C(=C\c1ccccc1F)c1ccc(C(F)(F)F)cc1 [Compound 1f2g]	> 100	> 100	> 100	> 100	> 100	> 100	> 100	> 100	> 100	> 100	> 100	> 100	> 100	–
N#C/C(=C\c1cccc2ccccc12)c1ccc(OC(F)(F)F)cc1 [Compound 1a3c]	> 100	> 100	> 100	> 100	> 100	> 100	> 100	> 100	> 100	> 100	> 100	> 100	> 100	–
N#C/C(=C\c1ccc(Oc2ccccc2)cc1)c1ccc(C(F)(F)F)cc1 [Compound 1f2v]	> 100	> 100	> 100	> 100	> 100	> 100	> 100	> 100	> 100	> 100	> 100	> 100	> 100	–
